PubChem BioAssay AID1996
Values after ≈ are worked out from the molar mass of the structure shown.

details: buffer; pH 7.4; 200.0 µM

Row | Structure (SMILES) | solubility kinetic
1 | O=[N+]([O-])c1ccc(-c2csc(N3CCCCCC3)n2)cc1 | 0.6 µg/mL (≈ 1.98 µM)
2 | CC(=O)N1CCn2c3c(c4cc(C)ccc42)CCCC31 (configuration not stated) | 38.6 µg/mL (≈ 144 µM)
3 | O=C(NC(=S)N1CCCCCC1)c1ccccc1Cl | > 44.5 µg/mL
4 | O=C(NC1CCCCC1)c1c2c(nc3ccccc13)CCC2 | 25.9 µg/mL (≈ 88 µM)
5 | Cc1cc(C)c(NC(=S)N(C)C)c(C)c1 | > 33.4 µg/mL
6 | O=C(Nc1ccc(OCC(F)(F)C(F)F)cc1)c1ccncc1 | > 49.2 µg/mL
7 | CC1CCCCN1C(=O)CSc1nc(-c2ccccc2)cn1N (configuration not stated) | > 49.6 µg/mL
8 | O=C(CSc1cccc2cccnc12)N/N=C/c1ccncc1 | > 48.4 µg/mL
9 | O=C(Cc1ccccc1)NCC(=O)N/N=C/c1cccnc1 | > 44.4 µg/mL
10 | O=C(NCCCCNC(=O)c1ccccn1)c1ccccn1 | > 44.8 µg/mL
11 | O=C(NC(=S)NCCO)c1sc2ccccc2c1Cl | 1.8 µg/mL (≈ 5.72 µM)
12 | Cn1c(-c2nonc2N)nc2ccccc21 | 4.3 µg/mL (≈ 20 µM)
13 | OCC1CCCCN1C(=S)NCc1ccco1 (configuration not stated) | 32.1 µg/mL (≈ 126 µM)
14 | Nc1nccc(-c2ccc(-n3cccc3)cc2)n1 | < 0.1 µg/mL
15 | Cl.OC(COCc1ccccc1F)CN1CCCCC1 (configuration not stated) | 44.1 µg/mL
16 | CN(C(=O)COC(=O)c1cc[n+]([O-])cc1)c1ccccc1 | > 42.9 µg/mL
17 | Cc1cccc(OCC(=O)OC(C)CN2CCCCC2)c1.Cl (configuration not stated) | > 49.2 µg/mL
18 | O=C(CN1CCCCC1)NC(=O)Nc1ccccc1F | > 41.9 µg/mL
19 | O=C(CN1C(=O)NC(CCc2ccccc2)C1=O)Nc1ccc(F)c(F)c1F (configuration not stated) | 4.5 µg/mL (≈ 11.5 µM)
20 | COc1ccccc1NC(=O)c1ccc(NC(=O)c2ccco2)cc1 | 8.5 µg/mL (≈ 25.3 µM)
21 | COc1ccc(C2(C)NC(=O)N(CC(=O)NC3CC3)C2=O)cc1 (configuration not stated) | 43.3 µg/mL (≈ 136 µM)
22 | CC1CCCN(C2(O)C(=O)Nc3ccc([N+](=O)[O-])cc32)C1 (configuration not stated) | 16.6 µg/mL (≈ 57 µM)
23 | CC(CC(=O)Nc1cccnc1)c1ccccc1 (configuration not stated) | > 36 µg/mL
24 | C=CCn1c(/N=C/c2ccc(OC)cc2)nc2ccccc21 | 40.6 µg/mL (≈ 139 µM)
25 | N#CCCN(C(=O)COC(=O)c1ccc2c(c1)OCCO2)c1ccccc1 | 52 µg/mL (≈ 142 µM)

Row | Structure (SMILES) | solubility kinetic
26 | O=C(Nc1cccc(-c2nc3ccccc3o2)c1)c1cccnc1 | 0.3 µg/mL (≈ 0.951 µM)
27 | O=C1CCC([N+](=O)[O-])C(c2ccc(C(F)(F)F)cc2)N1 (configuration not stated) | > 43.2 µg/mL
28 | CCCCNC(=O)COC(=O)c1cc(C)oc1C | > 38 µg/mL
29 | CC1CCN(C(=O)c2ccc3c(c2)OCO3)CC1 | 36.9 µg/mL (≈ 149 µM)
30 | Cc1cccc2c3c([nH]c12)CCNC3.Cl | > 33.4 µg/mL
31 | Cc1cccn2c(=O)c(C=O)c(N3CCN(C)CC3)nc12 | > 42.9 µg/mL
32 | CC(C)CN1C(=O)C(=Nc2cccnc2)c2ccccc21 | > 41.9 µg/mL
33 | COc1ccccc1CNC(=O)COC(=O)c1ccc(S(=O)(=O)N2CCCCC2)cc1 | 2.1 µg/mL (≈ 4.7 µM)
34 | Cc1cccc[n+]1CC(=O)c1ccccc1.[Br-] | > 43.8 µg/mL
35 | COC(=O)c1cc(S(=O)(=O)N(C)C2CCCCC2)cn1C | 45 µg/mL (≈ 143 µM)
36 | CC(C)N(Cc1ccccc1)C(=S)Nc1ccc(F)cc1 | 45.1 µg/mL (≈ 149 µM)
37 | [O-][n+]1c(/C=C/c2ccccc2)ccc2ccccc21 | > 37.1 µg/mL
38 | Cc1ccsc1C(=O)N1CCN(c2ncccn2)CC1 | > 43.3 µg/mL
39 | CC1CCN(C(=O)COC(=O)c2ccc(Cl)nc2)CC1 | > 44.5 µg/mL
40 | CCCCNC(=O)C1CCN(c2nc(C)cc(C)n2)CC1 | 8.9 µg/mL (≈ 30.6 µM)
41 | Cl.c1ccc2c(c1)CC(N1CCCCC1)c1ccccc1S2 (configuration not stated) | 1.8 µg/mL
42 | Clc1nc2ccccc2nc1-c1ccccc1 | 0.6 µg/mL (≈ 2.49 µM)
43 | Br.O=C(CN1CCCCC1)c1ccccc1F | > 45.3 µg/mL
44 | O=C(CCCc1cccs1)NCCc1c[nH]c2ccccc12 | 44.9 µg/mL (≈ 144 µM)
45 | O=C(Nc1ccccc1Cl)OC1CCCCC1 | < 0.5 µg/mL
46 | O=[N+]([O-])c1ccccc1S(=O)(=O)c1ccccc1[N+](=O)[O-] | 0.8 µg/mL (≈ 2.6 µM)
47 | N#Cc1ccc(NC(=O)CN2CCCC2)cc1Cl | > 39.6 µg/mL
48 | NC1=NC2(CCCC2)N=C(Nc2ccccc2)N1 | > 36.5 µg/mL
49 | COc1cccc(NC(=O)CN(C)C(=O)C2CC3C=CC2C3)c1 (configuration not stated) | > 47.2 µg/mL

The next lines start with the values.

Row | solubility kinetic | Structure (SMILES)
50 | > 48.5 µg/mL | Cc1noc(C)c1C(=O)NCCc1ccc(S(N)(=O)=O)cc1
51 | 41.4 µg/mL (≈ 130 µM) | CSc1ccccc1NC(=O)COc1ccc2c(c1)OCO2
52 | 41.9 µg/mL (≈ 148 µM) | NC(=O)COC(=O)C1c2ccccc2Oc2ccccc21
53 | 38.6 µg/mL (≈ 140 µM) | O=C(CNCc1ccccc1)Nc1ccc(Cl)cc1
54 | 0.5 µg/mL (≈ 1.14 µM) | Cc1ccc(C(=O)Nc2ccc(S(=O)(=O)N3CCOCC3)cc2)cc1Br
55 | > 60.2 µg/mL | CCN(Cc1ccncc1)C(=O)c1ccc(C)c(S(=O)(=O)N2CCCCC2)c1
56 | > 56.3 µg/mL | COc1ccc(CCN2CC(C(=O)Nc3nccs3)CC2=O)cc1OC (configuration not stated)
57 | 1 µg/mL (≈ 3.34 µM) | Cc1ccc(C)c(C(=O)CCC(=O)Nc2ccc(F)cc2)c1
58 | > 65.7 µg/mL | CC1CN(S(=O)(=O)c2cc(C(=O)NC(C)c3cccnc3)ccc2Cl)CC(C)O1 (configuration not stated)
59 | 4 µg/mL (≈ 12 µM) | O=C(OCCC1Oc2cccnc2NC1=O)c1ccc(Cl)cc1 (configuration not stated)
60 | > 50.4 µg/mL | O=C(Nc1sc2c(c1C(=O)O)CCCC2)c1ccccc1Cl
61 | > 38.7 µg/mL | COc1cccc(OC)c1C(=O)Nc1cccnc1
62 | > 51.3 µg/mL | COC(=O)Cc1c(O)ccn(Cc2ccc(Cl)c(Cl)c2)c1=O
63 | > 46.7 µg/mL | CC1(C)Cc2cccc(OCC(=O)NCc3ccccc3)c2O1
64 | 11.7 µg/mL (≈ 37.2 µM) | CCOC(=O)C(Cc1ccc(Cl)cc1Cl)c1ccno1 (configuration not stated)
65 | 45.7 µg/mL (≈ 144 µM) | COCCN(C(=S)Nc1ccccc1C)C(C)c1ccco1 (configuration not stated)
66 | 12.9 µg/mL (≈ 36.8 µM) | COc1ccc(NC(=O)C(Cc2ccccc2)n2cccc2)c(OC)c1 (configuration not stated)
67 | 6.4 µg/mL (≈ 23.1 µM) | Cc1ccc(C)c(NC(=O)c2ccc3nccnc3c2)c1
68 | 37.4 µg/mL (≈ 135 µM) | Cc1ccc2cc(NC(=O)c3ccccc3C)ccc2n1

Row | solubility kinetic | Structure (SMILES)
69 | 43.2 µg/mL (≈ 130 µM) | O=S(=O)(NCc1ccc(Cl)cc1)c1cccc2cccnc12
70 | < 0.2 µg/mL | Cc1ccc(C(=O)O/N=C(\N)c2ccc(C(F)(F)F)cn2)cc1
71 | 38.8 µg/mL (≈ 144 µM) | CC(C)c1ccc(OCC(=O)Nc2ccncc2)cc1
72 | > 52.9 µg/mL | CCOc1ccc2oc(C(=O)N3CCCN(C)CC3)c(C)c2c1.Cl
73 | > 50.4 µg/mL | O=S(=O)(Cc1ncc(C(F)(F)F)cc1Cl)c1ccccc1
74 | 10.2 µg/mL (≈ 32.2 µM) | CCOC(=O)c1ccc(NC(=O)CNC(=O)c2ccco2)cc1
75 | < 0.6 µg/mL | Cc1ccc(OCCN2C(=O)C(=O)c3cccc(C)c32)cc1
76 | 35.5 µg/mL (≈ 120 µM) | Cc1cc(OCC(=O)N(C)C2CCCCC2)ccc1Cl
77 | > 57.5 µg/mL | CN(C)C(CNS(=O)(=O)c1ccc(Cl)cc1F)c1ccco1.Cl (configuration not stated)
78 | < 0.2 µg/mL | CC(C)NC(=O)c1cc2c(=O)n3ccccc3nc2s1
79 | > 53.4 µg/mL | CCOC(=O)N1CCN(C(=O)COC(=O)c2ccc(Cl)nc2)CC1
80 | 27.6 µg/mL (≈ 82.8 µM) | COc1ccc(CCNC(=O)COC(=O)c2ccc(C)s2)cc1
81 | < 0.2 µg/mL | Cc1ccc(NC(=O)Nc2ccc(Cl)c(Cl)c2)nc1
82 | 1.7 µg/mL (≈ 5.37 µM) | Cc1ccc(CNc2ccc(N3CCOCC3)c(Cl)c2)cc1
83 | > 53.6 µg/mL | CCOc1ccccc1C(=O)OCC(=O)NCc1ccc2c(c1)OCO2
84 | 10.6 µg/mL (≈ 27.5 µM) | Cc1noc(C)c1C(=O)OC(C)C(=O)NC(C)c1ccc(Cl)cc1Cl (configuration not stated)
85 | > 53.3 µg/mL | CN(C)C(=O)N(CCCN1CCOCC1)Cc1cccc2ccccc12
86 | 6.7 µg/mL (≈ 22.3 µM) | COC(=O)COc1c(Cl)cc(Cl)c2ccc(C)nc12
87 | < 0.7 µg/mL | Cc1onc(-c2c(Cl)cccc2Cl)c1C(=O)c1ccc(F)cc1
